What follows are compounds tested against T1, TAAR1 (Mus musculus, UniProt Q923Y8) (assay: Radioligand binding to TAAR1, membranes of stably transfected HEK293 cells, [3H]-rac-2-(1,2,3,4-tetrahydro-1-naphthyl)-2-imidazoline). Conditions: mouse TAAR1; 4° C., 30 minutes incubation; radioligand at 60 nM.
T1 construct: expressed in transfected cells; host or cells: HEK293 cells (ATCC # CRL-1573), stably transfected with pIRESneo2 expression plasmid; membrane preparation
Experimental: The Expand High Fidelity PCR System (Roche Diagnostics) was used with 1.5 mM Mg^2+ and purified PCR products were cloned into pCR2.1-TOPO cloning vector (Invitrogen) following the instructions of the manufacturer. PCR products were subcloned into the pIRESneo2 vector (BD Clontech, Palo Alto, Calif.), and expression vectors were sequence verified before introduction in cell lines.
For the generation of stably transfected cell lines, HEK293 cells were transfected with the pIRESneo2 expression plasmids containing the TAAR coding sequences (described above) with Lipofectamine 2000 (Invitrogen) according to the instructions of the manufacturer, and 24 hours post transfection, the culture medium was supplemented with 1 mg/ml G418 (Sigma, Buchs, Switzerland). After a culture period of about 10 days, clones were isolated, expanded and tested for responsiveness to trace amines (all compounds purchased from Sigma) with the cAMP Biotrak Enzyme immunoassay (EIA) System (Amersham) following the non-acetylation EIA procedure provided by the manufacturer.
Cells at confluence were rinsed with ice-cold phosphate buffered saline without Ca^2+ and Mg^2+ containing 10 mM EDTA and pelleted by centrifugation at 1000 rpm for 5 minutes at 4° C. The pellet was then washed twice with ice-cold phosphate buffered saline and the cell pellet was frozen immediately by immersion in liquid nitrogen and stored until use at −80° C. The cell pellet was then suspended in 20 ml HEPES-NaOH (20 mM), pH 7.4 containing 10 mM EDTA, and homogenized with a Polytron (PT 3000, Kinematica) at 10,000 rpm for 10 seconds. The homogenate was centrifuged at 48,000×g for 30 minutes at 4° C. and the pellet resuspended in 20 ml HEPES-NaOH (20 mM), pH 7.4 containing 0.1 mM EDTA (buffer A), and homogenized with a Polytron at 10,000 rpm for 10 seconds. The homogenate was then centrifuged at 48,000×g for 30 minutes at 4° C. and the pellet resuspended in 20 ml buffer A, and homogenized with a Polytron at 10,000 rpm for 10 seconds. Protein concentration was determined by the method of Pierce (Rockford, Ill.). The homogenate was then centrifuged at 48,000×g for 10 minutes at 4° C., resuspended in HEPES-NaOH (20 mM), pH 7.0 including MgCl2 (10 mM) and CaCl2 ([…]) (buffer B) at 200 μg protein per ml and homogenized with a Polytron at 10,000 rpm for 10 seconds.
Binding assay was performed at 4° C. in a final volume of 1 ml, and with an incubation time of 30 minutes. […] Non-specific binding was defined as the amount of [^3H]-rac-2-(1,2,3,4-tetrahydro-1-naphthyl)-2-imidazoline bound in the presence of the appropriate unlabelled ligand (10 μM). Competing ligands were tested in a wide range of concentrations (10 pM-30 μM). […] Each experiment was performed in duplicate. All incubations were terminated by rapid filtration through UniFilter-96 plates (Packard Instrument Company) and glass filter GF/C) pre-soaked for at least 2 hours in polyethylenimine 0.3%, and using a Filtermate 96 Cell Harvester (Packard Instrument Company). The tubes and filters were then washed 3 times with 1 ml aliquots of cold buffer B. Filters were not dried and soaked in Ultima gold (45 μl/well, Packard Instrument Company) and bound radioactivity was counted by a TopCount Microplate Scintillation Counter (Packard Instrument Company).

T1 sequence (Q923Y8 whole entry): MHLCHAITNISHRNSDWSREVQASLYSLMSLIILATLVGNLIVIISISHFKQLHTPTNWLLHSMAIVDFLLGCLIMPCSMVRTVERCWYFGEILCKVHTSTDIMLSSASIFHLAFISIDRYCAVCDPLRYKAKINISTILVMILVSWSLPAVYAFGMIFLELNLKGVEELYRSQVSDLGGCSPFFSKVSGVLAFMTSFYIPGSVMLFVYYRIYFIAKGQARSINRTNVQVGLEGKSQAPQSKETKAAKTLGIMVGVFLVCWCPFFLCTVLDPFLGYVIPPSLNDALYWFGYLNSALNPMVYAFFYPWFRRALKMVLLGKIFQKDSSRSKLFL

Structure (SMILES) | Ki [µM]
c1ccc2c(c1)CCCN2Cc1cnc[nH]1 [Example 7, 1-(3H-Imidazol-4-ylmethyl)-1,2,3,4-tetrahydro-quinoline] | 0.0264
c1ccc2c(c1)OCCN2Cc1cnc[nH]1 [Example 18, 4-(1H-Imidazol-4-ylmethyl)-3,4-dihydro-2H-benzo[1,4]oxazine] | 0.0578
CCc1cccc2c1N(Cc1cnc[nH]1)CC2 [Example 23, 7-Ethyl-1-(1H-imidazol-4-ylmethyl)-2,3-dihydro-1H-indole] | 0.0042
Clc1cccc2c1CCN2Cc1cnc[nH]1 [Example 25, 4-Chloro-1-(1H-imidazol-4-ylmethyl)-2,3-dihydro-1H-indole] | 0.0016
COc1cccc2c1N(Cc1cnc[nH]1)CC2 [Example 28, 1-(1H-Imidazol-4-ylmethyl)-7-methoxy-2,3-dihydro-1H-indole] | 0.0409
COc1cccc2c1CCN2Cc1c[nH]cn1 [Example 31, 1-(1H-Imidazol-4-ylmethyl)-4-methoxy-2,3-dihydro-1H-indole] | 0.0243
Clc1cccc2c1N(Cc1cnc[nH]1)CC2 [Example 32, 7-Chloro-1-(H-imidazol-4-ylmethyl)-2,3-dihydro-1H-indole] | 0.0403
Fc1cc2c(cc1F)N(Cc1cnc[nH]1)CC2 [Example 38, 5,6-Difluoro-1-(1H-imidazol-4-ylmethyl)-2,3-dihydro-1H-indole] | 0.0144
Cc1cccc2c1N(Cc1cnc[nH]1)CC2 [Example 40, 1-(1H-Imidazol-4-ylmethyl)-7-methyl-2,3-dihydro-1H-indole] | 0.0405
Cc1cccc2c1CCN2Cc1cnc[nH]1 [Example 41, 1-(1H-Imidazol-4-ylmethyl)-4-methyl-2,3-dihydro-1H-indole] | 0.0104
COc1ccc2c(c1)CCCCN2Cc1cnc[nH]1 [Example 43, 1-(3H-Imidazol-4-ylmethyl)-7-methoxy-2,3,4,5-tetrahydro-1H-benzo[b]azepine] | 0.0538
c1ccc2c(c1)CCCCN2Cc1cnc[nH]1 [Example 44, 1-(3H-Imidazol-4-ylmethyl)-2,3,4,5-tetrahydro-1H-benzo[b]azepine] | 0.0151
c1ccc(COc2cccc3c2CCCN3Cc2cnc[nH]2)cc1 [Example 55, 5-Benzyloxy-1-(1H-imidazol-4-ylmethyl)-1,2,3,4-tetrahydro-quinoline] | 0.0046
c1ccc(COc2ccc3c(c2)N(Cc2cnc[nH]2)CCC3)cc1 [Example 57, 7-Benzyloxy-1-(1H-imidazol-4-ylmethyl)-1,2,3,4-tetrahydro-quinoline] | 0.0702
c1ccc(Oc2cccc3c2CCCN3Cc2c[nH]cn2)cc1 [Example 61, 1-(1H-Imidazol-4-ylmethyl)-5-phenoxy-1,2,3,4-tetrahydro-quinoline] | 0.0027

More lines, now with the values ahead:

Ki [µM] | Structure (SMILES)
0.0688 | CC1Cc2ccccc2N1Cc1cnc[nH]1 (racemic) [Example 1, (R,S)-1-(1H-Imidazol-4-ylmethyl)-2-methyl-2,3-dihydro-1H-indole]
0.0258 | CC1CCc2ccccc2N1Cc1cnc[nH]1 (racemic) [Example 3, (R,S)-1-(1H-Imidazol-4-ylmethyl)-2-methyl-1,2,3,4-tetrahydro-quinoline]
0.0598 | CC1CCc2cc(F)ccc2N1Cc1cnc[nH]1 (racemic) [Example 6, (R,S)-6-Fluoro-1-(1H-imidazol-4-ylmethyl)-2-methyl-1,2,3,4-tetrahydro-quinoline]
0.0345 | CC1Cc2cc(Cl)ccc2N1Cc1cnc[nH]1 (racemic) [Example 16, (R,S)-5-Chloro-1-(1H-imidazol-4-ylmethyl)-2-methyl-2,3-dihydro-1H-indole]
0.0323 | CC1CN(Cc2cnc[nH]2)c2ccccc21 (racemic) [Example 35, (R,S)-1-(1H-Imidazol-4-ylmethyl)-3-methyl-2,3-dihydro-1H-indole]
0.0493 | CC1Cc2cc(F)ccc2N1Cc1cnc[nH]1 (racemic) [Example 39, (R,S)-5-Fluoro-1-(1H-imidazol-4-ylmethyl)-2-methyl-2,3-dihydro-1H-indole]
0.017 | CC1COc2ccccc2N1Cc1cnc[nH]1 (racemic) [Example 45, (R,S)-4-(1H-Imidazol-4-ylmethyl)-3-methyl-3,4-dihydro-2H-benzo[1,4]oxazine]
0.0872 | CC1CCc2ccccc2N1Cc1cnc[nH]1 (single isomer, unassigned; (-)) [Example 47, (−)-1-(1H-Imidazol-4-ylmethyl)-2-methyl-1,2,3,4-tetrahydro-quinoline]
0.0573 | CC1COc2ccccc2N1Cc1cnc[nH]1 (single isomer, unassigned; (-)) [Example 49, (−)-4-(1H-Imidazol-4-ylmethyl)-3-methyl-3,4-dihydro-2H-benzo[1,4]oxazine]
0.0091 | Brc1ccc2c(c1)CCN2Cc1cnc[nH]1 [Example 4, 5-Bromo-1-(1H-imidazol-4-ylmethyl)-2,3-dihydro-1H-indole]
0.0102 | Clc1ccc2c(c1)CCN2Cc1cnc[nH]1 [Example 14, 5-Chloro-1-(1H-imidazol-4-ylmethyl)-2,3-dihydro-1H-indole]
0.0834 | COc1ccc2c(c1)CCN2Cc1cnc[nH]1 [Example 26, 1-(1H-Imidazol-4-ylmethyl)-5-methoxy-2,3-dihydro-1H-indole]
0.0389 | COc1ccc2c(c1)N(Cc1cnc[nH]1)CC2 [Example 27, 1-(1H-Imidazol-4-ylmethyl)-6-methoxy-2,3-dihydro-1H-indole]
0.0115 | Cc1ccc2c(c1)CCN2Cc1cnc[nH]1 [Example 29, 1-(1H-Imidazol-4-ylmethyl)-5-methyl-2,3-dihydro-1H-indole]
0.003 | Brc1ccc2c(c1)CCCN2Cc1cnc[nH]1 [Example 33, 6-Bromo-1-(H-imidazol-4-ylmethyl)-1,2,3,4-tetrahydro-quinoline]
0.0133 | Cc1ccc2c(c1)N(Cc1cnc[nH]1)CC2 [Example 34, 1-(1H-Imidazol-4-ylmethyl)-6-methyl-2,3-dihydro-1H-indole]
0.0277 | Fc1ccc2c(c1)CCN2Cc1cnc[nH]1 [Example 36, 5-Fluoro-1-(1H-imidazol-4-ylmethyl)-2,3-dihydro-1H-indole]
0.0106 | Fc1ccc2c(c1)N(Cc1cnc[nH]1)CC2 [Example 37, 6-Fluoro-1-(1H-imidazol-4-ylmethyl)-2,3-dihydro-1H-indole]

Same assay, conditions: radioligand of the TAAR1 binding assay; species not stated; read-out: calculated Kd value of the radioligand

Structure (SMILES) | Kd [nM]
c1ccc2c(c1)CCCC2C1=NCCN1 (racemic) [[^3H]-rac-2-(1,2,3,4-tetrahydro-1-naphthyl)-2-imidazoline, reference compound] | 60

From patent publication US7858652B2, “Substituted 4-imidazoles” (Hoffmann-La Roche Inc., priority 2006, dated 2010)
